Laboratory results reported in ChEMBL document CHEMBL1201862, “PubChem BioAssay data set” (2004).
Active and inactive are the calls of the source.

Assays:
Heat shock protein HSP90 = Heat shock protein HSP90 (Homo sapiens, UniProt P07900+P08238); test: Hsp90 blockade concentration-response – dose response (AID 712); assay type: functional
CAAX prenyl protease 2 = biological target: T1, CAAX prenyl protease 2 (Homo sapiens, UniProt Q9Y256); test: inhibition of Ras-converting CAAX protease Rce1 – biochemical, yeast membranes, quenched-peptide fluorescence, cherry-pick, dose response (AID 588849)
T1 sequence (Q9Y256 whole entry): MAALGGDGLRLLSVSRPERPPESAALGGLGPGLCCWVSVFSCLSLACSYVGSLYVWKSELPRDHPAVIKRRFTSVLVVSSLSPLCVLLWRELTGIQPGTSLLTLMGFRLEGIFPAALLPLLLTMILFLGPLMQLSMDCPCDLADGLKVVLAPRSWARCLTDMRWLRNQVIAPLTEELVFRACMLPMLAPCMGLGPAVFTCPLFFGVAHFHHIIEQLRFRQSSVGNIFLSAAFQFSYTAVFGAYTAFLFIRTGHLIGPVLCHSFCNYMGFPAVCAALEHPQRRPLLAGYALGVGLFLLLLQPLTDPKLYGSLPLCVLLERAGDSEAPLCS

Trypsin = Trypsin (Sus scrofa, UniProt P00761); test: trypsin protease activity blockade – biochemical, quenched peptide fluorescence, cherry-pick, selectivity assay for Rce1 protease inhibitor project, dose response (AID 488789)
Trypsin, sequence (P00761 whole entry): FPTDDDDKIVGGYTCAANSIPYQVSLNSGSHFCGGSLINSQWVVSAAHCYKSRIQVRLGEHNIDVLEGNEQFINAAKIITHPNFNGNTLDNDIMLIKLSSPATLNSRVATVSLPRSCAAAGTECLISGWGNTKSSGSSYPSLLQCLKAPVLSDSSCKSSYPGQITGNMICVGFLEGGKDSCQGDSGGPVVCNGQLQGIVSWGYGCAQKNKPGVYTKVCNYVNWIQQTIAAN

Estrogen receptor = biological target: T2, Estrogen receptor (Homo sapiens, UniProt P03372);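 further: potency for inhibiting coactivator peptide recruitment to the receptor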
T2 sequence (P03372 whole entry): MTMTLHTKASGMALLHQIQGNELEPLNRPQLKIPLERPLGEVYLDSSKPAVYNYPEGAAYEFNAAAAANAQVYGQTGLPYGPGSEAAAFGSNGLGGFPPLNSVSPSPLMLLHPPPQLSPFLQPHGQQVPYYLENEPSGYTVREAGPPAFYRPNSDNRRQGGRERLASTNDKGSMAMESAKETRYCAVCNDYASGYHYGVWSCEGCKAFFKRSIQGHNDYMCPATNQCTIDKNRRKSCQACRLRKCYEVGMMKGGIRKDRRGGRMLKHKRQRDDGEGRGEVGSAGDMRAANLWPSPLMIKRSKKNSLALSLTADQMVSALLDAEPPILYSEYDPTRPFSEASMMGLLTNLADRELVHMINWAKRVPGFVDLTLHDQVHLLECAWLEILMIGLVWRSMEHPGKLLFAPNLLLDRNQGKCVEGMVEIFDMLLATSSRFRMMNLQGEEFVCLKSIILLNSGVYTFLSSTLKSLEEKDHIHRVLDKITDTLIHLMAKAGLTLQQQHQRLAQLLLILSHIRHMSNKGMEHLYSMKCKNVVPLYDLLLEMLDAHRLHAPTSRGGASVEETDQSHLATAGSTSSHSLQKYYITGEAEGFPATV

Estrogen receptor beta [1] = biological target: T3, Estrogen receptor beta (Homo sapiens, UniProt Q92731);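 further: recombinant ER-beta bound to coactivator SRC1 peptide in presence of estradiol agonist; inhibitors block coactivator peptide binding and lower the FRET signal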
T3 sequence (Q92731 whole entry): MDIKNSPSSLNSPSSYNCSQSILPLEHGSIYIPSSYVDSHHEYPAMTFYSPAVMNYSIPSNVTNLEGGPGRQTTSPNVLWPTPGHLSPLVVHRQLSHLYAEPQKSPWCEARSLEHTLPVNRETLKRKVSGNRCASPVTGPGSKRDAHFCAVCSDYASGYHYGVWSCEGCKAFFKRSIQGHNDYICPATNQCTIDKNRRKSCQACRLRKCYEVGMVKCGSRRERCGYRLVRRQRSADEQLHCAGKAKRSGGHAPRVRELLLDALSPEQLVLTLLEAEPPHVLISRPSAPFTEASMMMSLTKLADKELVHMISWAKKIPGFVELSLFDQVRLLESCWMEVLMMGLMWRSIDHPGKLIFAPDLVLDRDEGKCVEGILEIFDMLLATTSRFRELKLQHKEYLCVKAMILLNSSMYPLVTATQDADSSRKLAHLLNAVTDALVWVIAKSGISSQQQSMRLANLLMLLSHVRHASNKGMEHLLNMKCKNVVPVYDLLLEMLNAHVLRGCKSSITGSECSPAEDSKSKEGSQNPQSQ

[2] = biological target: Induced myeloid leukemia cell differentiation protein Mcl-1 (Homo sapiens, UniProt Q07820); assay type: functional
Induced myeloid leukemia cell differentiation protein Mcl-1, sequence (Q07820 whole entry): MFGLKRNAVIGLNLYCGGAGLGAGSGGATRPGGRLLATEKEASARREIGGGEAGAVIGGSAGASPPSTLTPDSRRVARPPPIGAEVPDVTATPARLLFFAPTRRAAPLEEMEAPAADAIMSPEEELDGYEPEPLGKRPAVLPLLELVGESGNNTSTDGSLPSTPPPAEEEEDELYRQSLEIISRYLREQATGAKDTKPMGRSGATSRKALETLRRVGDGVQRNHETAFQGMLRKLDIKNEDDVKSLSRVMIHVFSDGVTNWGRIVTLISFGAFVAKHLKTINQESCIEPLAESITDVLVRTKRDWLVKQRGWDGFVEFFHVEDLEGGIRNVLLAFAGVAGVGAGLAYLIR

Estrogen receptor beta [3] = biological target: T3, Estrogen receptor beta; test: blockers of SRC-3 recruitment to ERβ – biochemical, ELISA, streptavidin-HRP readout, orthogonal assay, confirmation (AID 1060)
[4] = biological target: T4, Long-chain-fatty-acid--AMP ligase FadD28 (Mycobacterium tuberculosis, UniProt P9WQ59); test: Fluorescence polarization aasay to screen for inhibitors that compete for the binding of FadD28 to a bisubstrate Measured in Biochemical System Using Plate Reader - 2147-01_Inhibitor_Dose_CherryPick_Activity.; assay type: functional, Mycobacterium tuberculosis H37Rv
T4 sequence (P9WQ59 whole entry): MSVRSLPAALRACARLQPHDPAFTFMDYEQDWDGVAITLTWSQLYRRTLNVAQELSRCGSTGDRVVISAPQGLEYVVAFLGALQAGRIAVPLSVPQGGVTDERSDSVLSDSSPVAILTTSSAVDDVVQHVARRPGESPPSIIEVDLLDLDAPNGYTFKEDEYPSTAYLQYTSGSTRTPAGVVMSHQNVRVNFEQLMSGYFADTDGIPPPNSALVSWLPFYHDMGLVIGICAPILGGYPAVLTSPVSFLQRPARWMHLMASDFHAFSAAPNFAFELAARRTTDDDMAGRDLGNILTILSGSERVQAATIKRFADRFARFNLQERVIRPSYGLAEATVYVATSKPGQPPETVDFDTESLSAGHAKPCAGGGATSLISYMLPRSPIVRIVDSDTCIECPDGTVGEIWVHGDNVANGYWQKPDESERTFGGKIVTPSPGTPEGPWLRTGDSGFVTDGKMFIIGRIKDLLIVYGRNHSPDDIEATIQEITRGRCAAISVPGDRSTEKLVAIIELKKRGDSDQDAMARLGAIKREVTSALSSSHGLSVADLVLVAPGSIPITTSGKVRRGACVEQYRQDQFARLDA

[5] = CCR5-tropic HIV-1 fusion blockers – cell-based, CCR5-tropic Env, dose response (AID 2279); assay type: functional
[6] = biological target: Heat shock protein HSP 90-alpha (Homo sapiens, UniProt P07900); test: Luminescence-based dose response biochemical high throughput screening assay for inhibitors of the Heat Shock Protein 90 (HSP90). [Related pubchem assays: 1831 (Summary AID.), 1846 (Confirmation screen.), 1789 (Primary screen.)]
[7] = biological target: T5, Histone-lysine N-methyltransferase NSD2 (Homo sapiens, UniProt O96028); assay type: biochemical
T5 sequence (O96028 whole entry): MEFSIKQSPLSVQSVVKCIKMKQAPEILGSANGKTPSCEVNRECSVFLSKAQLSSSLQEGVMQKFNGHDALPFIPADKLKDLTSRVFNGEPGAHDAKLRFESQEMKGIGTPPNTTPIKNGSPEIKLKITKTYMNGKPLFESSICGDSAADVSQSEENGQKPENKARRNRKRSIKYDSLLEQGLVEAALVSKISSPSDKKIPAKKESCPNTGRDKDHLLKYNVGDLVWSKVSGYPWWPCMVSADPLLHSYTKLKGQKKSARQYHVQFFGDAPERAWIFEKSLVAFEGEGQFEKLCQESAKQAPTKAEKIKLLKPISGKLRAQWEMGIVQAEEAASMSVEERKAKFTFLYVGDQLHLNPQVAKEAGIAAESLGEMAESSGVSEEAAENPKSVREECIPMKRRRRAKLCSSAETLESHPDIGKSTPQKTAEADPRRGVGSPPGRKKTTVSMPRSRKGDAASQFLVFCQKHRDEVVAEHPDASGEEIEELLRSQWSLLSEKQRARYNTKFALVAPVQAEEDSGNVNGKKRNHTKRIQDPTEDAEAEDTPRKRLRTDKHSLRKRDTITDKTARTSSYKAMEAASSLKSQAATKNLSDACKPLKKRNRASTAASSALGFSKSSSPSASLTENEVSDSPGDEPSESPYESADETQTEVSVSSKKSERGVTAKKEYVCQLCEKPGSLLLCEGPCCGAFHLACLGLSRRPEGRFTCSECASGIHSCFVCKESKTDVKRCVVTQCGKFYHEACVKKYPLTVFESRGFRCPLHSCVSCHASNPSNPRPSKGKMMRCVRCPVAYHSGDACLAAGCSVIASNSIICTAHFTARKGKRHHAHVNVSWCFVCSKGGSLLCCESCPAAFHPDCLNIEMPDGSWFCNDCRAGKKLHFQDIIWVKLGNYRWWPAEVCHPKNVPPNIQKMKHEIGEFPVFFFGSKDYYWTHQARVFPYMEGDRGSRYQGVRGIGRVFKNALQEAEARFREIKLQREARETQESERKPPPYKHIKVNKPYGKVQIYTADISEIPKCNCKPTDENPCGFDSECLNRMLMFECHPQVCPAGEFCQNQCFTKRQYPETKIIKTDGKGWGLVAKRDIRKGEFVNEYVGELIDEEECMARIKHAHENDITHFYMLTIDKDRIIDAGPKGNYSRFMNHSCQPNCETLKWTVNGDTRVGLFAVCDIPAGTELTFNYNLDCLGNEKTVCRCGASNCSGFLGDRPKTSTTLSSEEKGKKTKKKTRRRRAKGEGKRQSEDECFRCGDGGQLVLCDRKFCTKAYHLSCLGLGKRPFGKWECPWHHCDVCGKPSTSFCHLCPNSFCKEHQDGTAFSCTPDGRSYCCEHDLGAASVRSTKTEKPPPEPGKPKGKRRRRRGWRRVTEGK

[8] = Dd2 malaria parasite growth inhibition potency – SYBR Green, dry powder samples, dose response (AID 1159566); assay type: functional, cell-based;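 further: potency for growth inhibition with lower SYBR green DNA signal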
[9] = P. falciparum Dd2 growth inhibitors, dose response, SYBR Green, cherry-picked samples (AID 1159567); assay type: functional, cell-based
[10] = growth inhibition of yeast DHODH-expressing 3D7 parasites – SYBR Green, dry powder samples, dose response (AID 1159570); assay type: functional, cell-based;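 further: parasite growth measured after 72 hours of compound exposure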
[11] = Plasmodium falciparum Dd2 Sybr green parasite growth Measured in Cell-Based and Microorganism Combination System Using Plate Reader - 2153-01_Inhibitor_Dose_DryPowder_Activity_Set3.; assay type: functional
[12] = growth inhibition of PfATP4-mutant resistant parasites – NITD609-resistant line, SYBR Green, dry powder, dose response (AID 1159571); assay type: functional, cell-based;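 further: parasites synchronized at ring stage by sorbitol before testing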
[13] = toxicity to human HepG2 hepatoma cells – cell-based, plate reader, dry powder samples, cytotoxicity control, dose response (AID 1159569); assay type: functional;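 further: inhibitor potency with signal falling toward the positive control level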
[14] = rise of 4N DNA cells, HeLa – IC50, dose response (AID 1117351); assay type: functional, cell-based
[15] = SNU-C1 cell viability reduction, dose response, CellTiter-Glo luminescence (AID 1117323); assay type: functional, cell-based
[16] = rise of 2N DNA cells, HeLa – IC50, dose response (AID 1117349); assay type: functional, cell-based
[17] = RKO cell viability reduction, dose response, CellTiter-Glo luminescence (AID 1117322); assay type: functional
cells = assay type: functional, cell-based; conditions: INS-1E
[18] = Reduced DLD-1 viability, concentration-response, CellTiter-Glo luminescence (AID 1117352); assay type: functional
[19] = cytotoxicity toward Colo320 cells – cell-based, CellTiter-Glo luminescence, IC50, dose response (AID 1117334); assay type: functional; conditions: COLO 320
[20] = cytotoxicity toward HCT116 cells – cell-based, CellTiter-Glo luminescence, IC50, dose response (AID 1117332); assay type: functional; conditions: HCT-116
[21] = IC50 of insulin release inhibition, rat insulinoma INS-1E line, 5 mM glucose, cell-based (AID 1117331); assay type: functional
[22] = CellTiter-Glo luminescence survival assay, SW480 colon tumor line, concentration-response curve, half-maximal inhibitory concentration (AID 1117338); assay type: functional
[23] = glucagon-like peptide-1 release potency in STC-1, concentration-response, half-maximal inhibitory concentration in the STC-1 line (AID 1117345); assay type: functional, cell-based
[24] = Potency on glucagon-like peptide 1 release, dose-response in NCI-H716 cell line, half maximal inhibitory concentration (AID 1117344); assay type: functional, cell-based
[25] = cytotoxicity toward HT-29 cells – cell-based, CellTiter-Glo luminescence, IC50, dose response (AID 1117330); assay type: functional
[26] = HCT116 cell viability decrease, GSK3B pretreatment – CellTiter-Glo, IC50, dose response (AID 1117339); assay type: functional; conditions: HCT-116

In the case of `COc1ccc(OC)c(/C=N/c2oc(-c3ccco3)c(-c3ccco3)c2C#N)c1`, the IC50 (Heat shock protein HSP90) is reported as 21.1062 µM, the AC50 (CAAX prenyl protease 2) is reported as 4.46 µM (active) and the AC50 (Trypsin) is reported as 7.23 µM (active). For the same molecule, the IC50 (Estrogen receptor) was 16.3 µM (active), the IC50 (Estrogen receptor beta [1]) was 6.47 µM (active) and the IC50 [2] was 6.88 µM (active). The IC50 (Estrogen receptor beta [3]) was 9.23 µM (not active).

With `COc1ccc(C(=O)Oc2ccc(/C=N/Nc3ccc(Cl)c(C(=O)O)c3)cc2OC)cc1` the AC50 [4] was 99.3 µM (active), the IC50 [5] was 7.02 µM (active) and the IC50 [6] was 1.5 µM (active). The AC50 [7] was > 20 µM (inactive).

With `CCCNC(=O)N1[C@H](C#N)[C@H](c2ccc(-c3cccc(OC)c3)cc2)[C@H]1CO` the AC50 [8] was 0.0154 µM (active), the AC50 [9] was < 0.3 µM (active) and the AC50 [10] was 10.4 µM (active). The AC50 [11] was 0.0751 µM (active), the AC50 [12] was 0.0278 µM (active) and the AC50 [13] was > 100 µM (inactive).

In the case of `CN(C)CCOC(c1ccccc1)c1ccc(Br)cc1` (configuration not stated) [BROMODIPHENHYDRAMINE], the IC50 [14] is reported as > 10 µM (inactive), the IC50 [15] is reported as 3.1 µM (active) and the IC50 [16] is reported as > 10 µM (inactive). The IC50 [17] was > 20 µM (inactive), the IC50 (cells) was > 33.3 µM (inactive) and the IC50 [18] was > 20 µM (inactive). For the same molecule, the IC50 [19] was > 20 µM (inactive), the IC50 [20] was > 20 µM (inactive) and the IC50 [21] was 2.77 µM (active). The IC50 [22] was > 20 µM (inactive).

With `O=C(O)c1cc(/N=N/c2ccc(O)c(C(=O)O)c2)ccc1O` [OLSALAZINE] the IC50 [23] was 9.54 µM (inactive) and the IC50 [24] was > 40 µM (inactive).

With `Clc1ccc(C(Cn2ccnc2)OCc2ccsc2Cl)c(Cl)c1` (configuration not stated) [TIOCONAZOLE] the IC50 [15] was 2.18 µM (active), the IC50 [25] was > 20 µM (inactive) and the IC50 [26] was 2.84 µM (active). For the same molecule, the IC50 [17] was 5.25 µM (inactive), the IC50 [18] was > 20 µM (inactive) and the IC50 [19] was 5.23 µM (inactive). The IC50 [20] was 4.07 µM (active) and the IC50 [22] was > 20 µM (inactive).
